Tests used:
Type in all cases: in vivo
[1] = test system: Diamond Backmoth (Plutella xylostella); test: Diamond backmoth leaf-dip test on cabbage leaves; conditions: 3rd instar larvae on dipped cabbage leaves, 72 hours after treatment, read-out: mortality in comparison with untreated controls
Description: B.1 Diamond Backmoth (Plutella xylostella)
The active compound was dissolved at the desired concentration in a mixture of 1:1 (vol:vol) distilled water: acteon. Surfactant (Alkamuls® EL 620) was added at a rate of 0.1% (vol/vol). The test solution was prepared at the day of use.
Leaves of cabbage were dipped in test solution and air-dried. Treated leaves were placed in petri dishes lined with moist filter paper and inoculated with ten 3rd instar larvae. Mortality was recorded 72 hours after treatment. Feeding damages were also recorded using a scale of 0-100%.

[2] = test system: Southern Armyworm (Spodoptera eridiana); test: Southern armyworm foliar spray test on lima bean plants; conditions: 96 h, larvae on sprayed lima bean plants, 4 days after treatment, read-out: mortality in comparison with untreated controls
Description: B.2 Southern Armyworm (Spodoptera eridiana)
(§1) The active compounds were formulated in cyclohexanone as a 10,000 ppm solution supplied in tubes. The tubes were inserted into an automated electrostatic sprayer equipped with an atomizing nozzle and they served as stock solutions for which lower dilutions were made in 50% acetone:50% water (v/v). A nonionic surfactant (Kinetic®) was included in the solution at a volume of 0.01% (v/v).
Lima bean plants (variety Sieva) were grown 2 plants to a pot and selected for treatment at the 1st true leaf stage. Test solutions were sprayed onto the foliage by an automated electrostatic plant sprayer equipped with an atomizing spray nozzle. The plants were dried in the sprayer fume hood and then removed from the sprayer. Each pot was placed into perforated plastic bags with a zip closure. About 10 to 11 armyworm larvae were placed into the bag and the bags zipped closed. Test plants were maintained in a growth room at about 25° C. and about 20-40% relative humidity for 4 days, avoiding direct exposure to fluorescent light (24 hour photoperiod) to prevent trapping of heat inside the bags. Mortality and reduced feeding were assessed 4 days after treatment, compared to untreated control plants.

[3] = test system: Boll Weevil (Anthonomus grandis); test: Boll weevil microtiter plate insect diet test; conditions: 120 h, egg and larval mortality, 5 days, read-out: mortality in comparison with untreated controls
Description: B.3 Boll Weevil (Anthonomus grandis)
For evaluating control of boll weevil (Anthonomus grandis) the test unit consisted of 24-well-microtiter plates containing an insect diet and 20-30 A. grandis eggs.
The compounds were formulated using a solution containing 75% v/v water and 25% v/v DMSO. Different concentrations of formulated compounds were sprayed onto the insect diet at 20 μl, using a custom built micro atomizer, at two replications.
After application, microtiter plates were incubated at about 23±1° C. and about 50±5% relative humidity for 5 days. Egg and larval mortality was then visually assessed.

[4] = test system: Tobacco Budworm (Heliothis virescens); test: Tobacco budworm microtiter plate insect diet test; conditions: 120 h, egg and larval mortality, 5 days, read-out: mortality in comparison with untreated controls
Description: B.4 Tobacco Budworm (Heliothis virescens) I
For evaluating control of tobacco budworm (Heliothis virescens) the test unit consisted of 96-well-microtiter plates containing an insect diet and 15-25 H. virescens eggs.
The compounds were formulated using a solution containing 75% v/v water and 25% v/v DMSO. Different concentrations of formulated compounds were sprayed onto the insect diet at 10 μl, using a custom built micro atomizer, at two replications.
After application, microtiter plates were incubated at about 28±1° C. and about 80±5% relative humidity for 5 days. Egg and larval mortality was then visually assessed.

[5] = test system: Green Peach Aphid (Myzus persicae); test: Green peach aphid spray test on bell pepper plants; conditions: 120 h, aphids on sprayed bell pepper plants, after 5 days, read-out: mortality in comparison with untreated controls
From the text: B.6 Green Peach Aphid (Myzus persicae)
as §1
Bell pepper plants at the first true-leaf stage were infested prior to treatment by placing heavily infested leaves from the main colony on top of the treatment plants. Aphids were allowed to transfer overnight to accomplish an infestation of 30-50 aphids per plant and the host leaves were removed. The infested plants were then sprayed by an automated electrostatic plant sprayer equipped with an atomizing spray nozzle. The plants were dried in the sprayer fume hood, removed, and then maintained in a growth room under fluorescent lighting in a 24-hr photoperiod at about 25° C. and about 20-40% relative humidity. Aphid mortality on the treated plants, relative to mortality on untreated control plants, was determined after 5 days.

In the case of `Cc1cc(Cl)cc(C(=O)NOCC(=O)N(C)C)c1NC(=O)c1ccc(C(F)(F)F)cc1-c1ncccc1Cl` [compound 1-1, 5-chloro-2-[2-(3-chloro-pyridin-2-yl)-4-trifluoromethyl-benzoylamino]-N-dimethylcarbamoylmethoxy-3-methyl-benzamide], the mortality at 500 ppm [1] is reported as no less than 75%, the mortality at 500 ppm [2] is reported as no less than 75% and the mortality at 2500 ppm [3] is reported as greater than 75%. The mortality at 2500 ppm [4] was greater than 75% and the mortality at 2500 ppm [5] was greater than 75%.

From US20140243196A1, “Carbamoylmethoxy- and Carbamoylmethylthio- and Carbamoylmethylamino Benzamides for Combating Invertebrate Pests” (BASF SE, priority 2011, published 2014)
